Values of other authors as cited in patent publication US12533344B2, “Formulations” (Glaukos Corporation, priority 2021, dated 2026).
Where two headings read alike, the source gives them in different places. Values belong to the compound of their own block, whether it stands above or below them.

Settings: for Effective Buffering Range: pH range

Compound: O=C1O[C@H]([C@@H](O)CO)C(O)=C1O [Ascorbic acid]
Effective Buffering Range: 3.3-6.2

Compound: O=C(O)CCCCCCCC(=O)O [Azeliac acid]
pKa (buffers and stabilizers of Table 1): 4.60
Effective Buffering Range: 3.3-6.0

Compound: Citrate buffer
Effective Buffering Range (listed as Citrate buffer-pKa1): 2.2-5.0
Effective Buffering Range (listed as Citrate buffer-pKa2): 3.0-6.2

Now from value to compound:

Effective Buffering Range: 2.8-5.3
Compound: CC(O)C(=O)O (stereo not shown) [Lactic acid]

pKa of pilocarpine: ~6.5
Compound: CC[C@@H]1C(=O)OC[C@@H]1Cc1cncn1C [pilocarpine, reference compound]
